These results are taken from patent US4007201A, “Novel pyrazole derivatives” (Kyorin Pharmaceutical Co. Ltd., priority 1975, dated 1977).

Broadly, the inhibition is the percentage by which the read-out fell short of the control. Low values mean a response near the control, high ones a response far below the control.

Common to all, as to assay type: in vivo, male Sprague Dawley rats
Test [1] relates to blood glucose level in non-diabetic rats. In words: Hypoglycemic activity in non-diabetic rats (screening test). To be noted: Rattus norvegicus, 100 mg/kg oral, fasted, glucose s.c. How it is done: (§1) These new compounds of the present invention are very useful as anti-diabetic agents, which is supported from the following pharmacological studies. The animals used for the pharmacological studies were male Sprague Dawley rats exept otherwise noted. 1. Hypoglycemic activity in non-diabetic rats (screening test)
The rats were fasted for 16 - 18 hours prior to the experiment and those weighing 140 - 160g were used. Glucose solution (100 mg/0.5ml/150g body weight) was subcutaneously injected on the fasted rats. Each of the present compounds was suspended in 1% carboxymethyl cellulose (CMC), and about 0.5 ml of the suspension (corresponding to 100 mg/kg of the compound per body weight) was orally administered. Blood samples were taken from the tail vein of the rats at 2 and 5 hours after the administration, and the blood glucose level in each sample (0.1 ml) was determined by the micro method of Momose as described in SOGO-RINSHO 11, 120 (1962).
3,5-Dinitrophthalic acid is reduced with glucose to stable orange-red azo-compound via red hydroxyaminophthalic acid in basic media.
To 0.5ml of water was added 0.1ml of blood and shaken to hemolyze, and to which was added 1.7ml of 0.06N barium hydroxide solution. To the resulting dark-brown solution was added 1.7ml of zinc sulfate solution (1g/dl), and which was shaken thoroughly and allowed to stand for 2-3min followed by centrifugation.
One ml of 3,5-dinitrophthalic acid solution (1.5g of monopyridinium-3,5-dinitrophthalate in 500ml of water) and 1 ml of sodium carbonatesodium hyposulfite solution (125-25g/500ml) were added to 2ml of spernatant solution. The solution was heated at 100° C for 10 min. After cooling with running water for 3 min, water was added to make 20ml.
To 2ml of water were added 3,5-dinitrophthalic acid solution and an alkaline solution, and the solution was treated as mentioned above.
As the absorbance of reference at 450nm was adjusted to 0, the absorbance of sample corresponded to blood glucose level.

The test system of test [2] is blood glucose level in alloxan diabetic rats. The test can be described thus: Hypoglycemic effect in alloxan diabetic rats. The following applies: ± SE. Here is the method: as §1
(§2) Alloxan diabetic rats were obtained as follows. Namely, 2.5% fresh solution of alloxan (50mg/kg) was injected into the tail vein of male rats, and the rats were daily injected with insulin (1-4 units/day) from the 7th day after the administration of alloxan. The alloxan diabetic rats which were survived for more than 2 months with daily injection of insulin were used. The alloxan diabetic rats were fasted for 24 hours after the last treatment with insulin, and then the compound of the present invention was orally administered. The blood glucose levels were determined by the micro method of Momose before and 2, 4 and 6 hours after the administration.

For test [3], the system named is blood glucose level in non-diabetic rats. The test can be described thus: Blood glucose level in non-diabetic rats at 90 minutes. The following applies: 100 mg/kg oral. Here is the method:
as §1
(§3) The rats were fasted for 16-18 hours, and those weighing 130-160g were used. The compound 4 suspended in 1% CMC was orally administered to the fasted rats, and at 90 minutes after administration blood was drawn from the […] vena cava under anesthesia with sodium pentobarbital. The blood glucose level was determined by the method of Momose, and the serum FFA level was determined by the method of Itaya and Ui as described in J. Lipid Res., 6, 16 (1965), respectively.

Test [4] has as its system serum FFA level in non-diabetic rats. In words: Serum free fatty acids (FFA) level in non-diabetic rats at 90 minutes. The following applies: 100 mg/kg oral. Here is the method: as §1, §3
The test system of test [5] is serum FFA level in alloxan diabetic rats. The test can be described thus: Serum FFA level in alloxan diabetic rats, 10 consecutive days. The following applies: 100 mg/kg, 10 consecutive days. Here is the method: as §1, §2
(§4) The alloxan diabetic rats which were prepared and then preserved for 6 months with insulin as described in the previous experiment were used.

The subject of test [6] is serum cholesterol level in alloxan diabetic rats. The test can be described thus: Serum cholesterol level in alloxan diabetic rats, 10 consecutive days. To be noted: 100 mg/kg, 10 consecutive days. How it is done: as §1, §2, §4
Test [7] deals with blood glucose level in streptozotocin-diabetic rats. In words: Hypoglycemic effect in streptozotocin-diabetic rats. To be noted: Rattus norvegicus; 100 mg/kg oral; 4 hours. Here is the method:
The animals used for the pharmacological studies were male Sprague Dawley rats exept otherwise noted. 1. […]
The rats were fasted for 16 hours, and then streptozotocin was intravenously injected in a dose of 65 mg/kg. Oral administration of the compound 4 was performed at 48 hours after the injection of streptozotocin. Blood samples were taken at 4 hours after the oral administration, and the blood glucose level in each sample was determined.

For test [8], the system named is serum FFA level in fasted rats. The test can be described thus: Time course of the serum FFA level in fasted rats (FIG. 1). The following applies: 50 mg/kg oral; 0.5, 1, 2, 4 and 6 hours. Here is the method:
as §1
Further experiment was performed to clarify the effectiveness of the compound 4 on the serum FFA. Blood samples were taken at 0.5, 1, 2, 4 and 6 hours after an oral administration of 50 mg/kg to the fasted rats and the serum FFA levels were determined.

In test [9] the test system is blood glucose level in alloxan diabetic rats. In words: Blood glucose level in alloxan diabetic rats loaded with much quantity of glucose. To be noted: alloxan diabetic rats; dose not stated. Here is the method:
as §1
Respective dose of the compound 4 (12.5 and 100 mg/kg) together with 2g/kg of glucose was orally administered to the alloxan diabetic rats.

Where [10] appears, read: 2 hours, read-out: Reduction % of blood glucose from control after 2 hours.
[11] abbreviates: 5 hours, read-out: Reduction % of blood glucose from control after 5 hours.

Read-outs that look alike come from different tables or passages of the source.

In the case of `Cc1cc(C)n(C(=O)CCNS(=O)(=O)c2ccccc2)n1` [Example 1, 1-(N-benzenesulfonyl-β-alanyl)-3,5-dimethylpyrazole], the inhibition in vivo at 100 mg/kg in test [1] (setting [10]) amounted to 22.1%; in test [1] (setting [11]), 19.8%.
In the same order, the values of `CC(=O)NCCc1ccc(S(=O)(=O)NCCC(=O)n2nc(C)cc2C)cc1` [Example 2, 1-≡N-[p-(2-acetaminoethyl)benzene-sulfonyl]-β-alanyl.quadrature. -3,5-dimethylpryrazole] are 37.1% and 26%.
As for `Cc1cc(C)n(C(=O)CCNS(=O)(=O)c2ccc(CCNC(=O)c3cnccn3)cc2)n1` [Example 3, 1-≡N-≡ p-[2-(2-pyrazinecarbonyl-amino)ethyl]benzenesulfonyl.quadrature. -β-alanyl.quadrature. -3,5-dimethylpyrazole], the inhibition in vivo at 100 mg/kg was 41.7% in test [1] (setting [10]) and 25.7% in test [1] (setting [11]).
For `CC(=O)NCCc1ccc(S(=O)(=O)NCC(=O)n2nc(C)cc2C)cc1` [Example 5, 1-≡N-[p-(2-acetaminoethyl)-benzenesulfonyl]-glycyl.quadrature.-3,5-dimethylpyrazole] the same measures were 35.2% and 34.1%.
As to `CCOC(=O)NCCc1ccc(S(=O)(=O)NCC(=O)n2nc(C)cc2C)cc1` [Example 6, 1-≡N-[p-(2-ethoxycarbonylaminoethyl)benzenesulfonyl]-glycyl.quadrature.-3,5-dimethylpyrazole], the inhibition in vivo at 100 mg/kg in test [1] (setting [10]) worked out at 33.3%; in test [1] (setting [11]), 22.1%.
In the same order, the values of `CCOC(=O)NCCc1ccc(S(=O)(=O)NCCC(=O)n2nc(C)cc2C)cc1` [Example 7, 1-≡N-[p-(2-ethoxycarbonylaminoethyl)benzenesulfonyl]-β -alanyl.qu adrature.-3,5-dimethylpyrazole] are 41.6% and 23.3%.
For `Cc1cc(C)n(C(=O)CCNS(=O)(=O)c2ccc(Cl)cc2)n1` [Example 8, 1-[N-(p-chlorobenzenesulfonyl)-β-alanyl]-3,5-dimethylpyrazole] the same measures were 42.5% and 22.1%.
In the same order, the values of `COc1ccc(Cl)cc1C(=O)NCCc1ccc(S(=O)(=O)NCC(=O)n2nc(C)cc2C)cc1` [Example 9, 1-≡N-≡p-[2-(2-methoxy-5-chlorobenzoylamino)-ethyl]benzenesulfonyl.quadrature.glycyl.quadrature.-3,5-dimethyl-pyrazole] are 48.1% and 17.7%.
Turning to `Cc1cc(C)n(C(=O)CNS(=O)(=O)c2ccc(C3CCCCC3)cc2)n1` [Example 10, 1-[N-(p-cyclohexylbenzenesulfonyl)-glycyl]-3,5-dimethylpyrazole], the inhibition in vivo at 100 mg/kg in [1] (setting [10]) is 42.1%; in test [1] (setting [11]), 3.3%.
In the same order, the values of `Cc1cc(C)n(C(=O)CNS(=O)(=O)c2ccc(CC(C)C)cc2)n1` [Example 11, 1-[N-(p-isobutylbenzenesulfonyl)-glycyl]-3,5-dimethylpyrazole] are 37.9% and 1.4%.
In the same order, the values of `Cc1cc(C)n(C(=O)C(NS(=O)(=O)c2ccc(Cl)cc2)c2ccccc2)n1` (stereo not drawn) [Example 12, 1-[N-(p-chlorobenzenesulfonyl)-α-phenylglycyl]-3,5-dimethylpyrazole] are 32.6% and 4%.
In the same order, the values of `Cc1cc(C)n(C(=O)[C@H](C)NS(=O)(=O)c2ccc(Cl)cc2)n1` [Example 13, 1-[N-(p-chlorobenzenesulfonyl)-alanyl]-3,5-dimethylpyrazole] are 51.3% and 5%.
With `Cc1cc(C)n(C(=O)[C@H](Cc2ccccc2)NS(=O)(=O)c2ccc(Cl)cc2)n1` [Example 14, 1-[N-(p-chlorobenzenesulfonyl)-phenylalanyl]-3,5-dimethylpyrazole], the values for the inhibition in vivo at 100 mg/kg in test [1] (setting [10]) and in [1] (setting [11]) were 43.6% and -0.9%, respectively.
Consider `[H]/N=C(/N)N/C(=N/[H])NCCc1ccccc1` [Phenformin, phenethylbiguanide, reference compound], for which the “Blood glucose before administration” value in test [2] (100 mg/kg oral group, before administration (baseline)) is 368.7 ± 31.3 mg%. The “Blood glucose 2 hours” value in [2] (100 mg/kg oral, 2 hours) is given as 262.2 ± 43.3 mg%. Further, in test [2] (100 mg/kg oral, 4 hours), the “Blood glucose 4 hours” value is 196.0 ± 48.9 mg%. The “Blood glucose 6 hours” value in test [2] (100 mg/kg oral, 6 hours) was found to be 133.7 ± 29.3 mg%. The Blood glucose level in test [3] was found to be 103.0 ± 6.9 mg/dL. Also, the “Serum FFA level” value in [4] was determined as 59.8 ± 18.0 μ Eq/dl. In addition, in [5], the FFA amounted to 89.9 ± 16.4 μ Eq/dl serum. Besides, the Cholesterol in test [6] is recorded as 63.5 ± 5.4 mg/dl serum. The same molecule displayed an inhibition at 100 mg/kg in test [7] of 79.9 ± 2.9%.
Take `COCCOc1cnc(NS(=O)(=O)c2ccccc2)nc1` [sodium glymidine]: the “Effect on serum FFA level (in words, FIG. 1)” value in test [8] was “only a slight suppression”. Besides, the “Hypoglycemic effect (in words)” value in test [9] was “no hypoglycemic effect”.
